Structures are written as SMILES.

The target in test [1] is T1, PKCδ-GFP fusion protein (Homo sapiens, UniProt Q05655).
T1 construct: The DNA encoding C-terminal GFP-tagged full-length PKCδ was electroporated into the cells; expressed in transfected cells; host or cells: Rat basophilic leukemia 2H3 (RBL) cells
Kind of test: PKC translocation assay, PKCδ. It is filed as cell-based, Rat. As to conditions: RBL cells, 200 nM, confocal microscopy. The protocol: (§1) Functional activity of analogs were addressed in a PKC translocation assay. […] This translocation can be observed and measured in real time with confocal microscopy using the fusion protein PKC-GFP (green fluorescent protein) as a reporter. Translocation assays were performed on the novel PKC isozymes δ and ε and on the conventional isozyme PKCβ1.
(§2) Rat basophilic leukemia 2H3 (RBL) cells were cultured in Dulbecco's Modified Eagle Medium (DMEM) (Invitrogen Life Technologies, Gibco) containing 20% fetal calf serum with 50 units/ml penicillin, […] and 4 mM glutamine (Gibco). Cells were maintained at 37° C. in an atmosphere of 10% CO2. Two hours prior to transfection, cells were plated onto sterile glass coverslips. […]
(§3) Fluorescence images were obtained using the 488 nm excitation line of a laser scanning confocal microscope (Pascal, Zeiss) and emission was collected through a 505-550 nm band pass filter. […]
(§4) Images were exported as 12 bit files and analyzed using Metamorph data analysis software (Universal Imaging). To monitor the translocation of PKCδ-GFP, a small region of interest was selected in the cytosol of each cell and fluorescence intensity values graphed against time following background subtraction and normalization. […]

The target of test [2] is T2, PKCε (PKC-GFP fusion protein) (Homo sapiens, UniProt Q02156).
T2 construct: expressed in transfected cells; host or cells: Rat basophilic leukemia 2H3 (RBL) cells
Nature of the test: PKC translocation assay, PKCε. As to conditions: RBL cells, 200 nM, confocal microscopy. It is filed as cell-based, Rat. As for the experimental part: as §1, §2, §3, §4

In test [3] the target is T3, PKCβI (PKC-GFP fusion protein) (Homo sapiens, UniProt P05771).
T3 construct: expressed in transfected cells; host or cells: Rat basophilic leukemia 2H3 (RBL) cells
Nature of the test: PKC translocation assay, PKCβI. It is filed as cell-based, Rat. As for the experimental part: as §1, §2, §3, §4

The target in test [4] is PKC purified from the rat brain. Nature of the test: PKC binding assay. Conditions: competitive inhibition of [3H]-PDBu binding; read-out: PKC Binding constant. The protocol: Filters (Whatman GF-B, 21 mm dia.) are soaked for 1 hour in a solution containing deionized water (97 mL), and 10% polyethyleneamine (3 mL). An assay buffer solution is prepared by the combining of TRIS (1M, pH 7.4, 1 mL), KCl (1M, 2 μL), CaCl2 (0.1M, 30 μL), bovine serum albumin (40 mg), and diluting to 20 mL with deionized water and stored on ice. Phosphatidyl serine vesicles are prepared by the addition of phosphatidyl serine (10 mg/mL in chloroform, 0.4 mL) to a glass test tube followed by removal of the chloroform under a stream of nitrogen (5 min). To this viscous liquid is added a portion of the prepared assay buffer (4 mL) and the resulting mixture is then transferred to a plastic tube. This tube is then sonicated (Branson Sonifier 250, power=6, 40% duty cycle) four times for 30 sec. with a 30 sec. rest in-between sonications. The resulting solution is stored over ice. PKC is prepared by the addition of cooled assay buffer (10 mL) to PKC (25 mL) purified from the rat brain by the method of Mochly-Rosen et al. (J. Biol. Chem. 1987, 262, 2291) and then stored on ice. Stock solutions of compounds are diluted with absolute ethanol in glass in serial fashion.
Each plastic assay incubation tube is made to contain prepared phosphatidyl serine vesicles (60 μL), prepared PKC solution (200 μL) and analog ([…] plus EtOH (20-0 μL) for a total volume of 20 μL). Lastly, tritiated phorbol dibutryate ([3H]-PDBu) (30 nM, 20 μL) is added to each tube. The assay is carried out using 7-10 analog concentrations, each in triplicate. Non-specific binding is measured in 1-3 tubes by the substitution of phorbol myristate acetate (PMA) (1 mM, 5 μL) and EtOH (15 μL) for the analog/EtOH combination. The tubes are incubated at 37° C. for 90 min. and then put on ice for 5 min. Each tube is then filtered separately through a pre-soaked filter disc. The filter is subsequently rinsed with cold 20 mM TRIS buffer (5 mL) dropwise. The filters are then put in separate scintillation vials and Universol® scintillation fluid is added (3 mL). The filters are immediately counted in a scintillation counter (Beckman LS 6000SC). Counts per minute are averaged among three trials at each concentration. The data is then plotted using a least square fit algorithm with the Macintosh version of Kaleidagraph® (Abelbeck Software) and an IC50 (defined as the concentration of analog required to displace half of the specific PDBu binding to PKC) is calculated. The IC50 then allows determination of the Ki for the analog from the equation: Ki=IC50/(1+[PDBu])/Kd of PDBu).

T3 sequence (P05771 whole entry, the tested form may be a part): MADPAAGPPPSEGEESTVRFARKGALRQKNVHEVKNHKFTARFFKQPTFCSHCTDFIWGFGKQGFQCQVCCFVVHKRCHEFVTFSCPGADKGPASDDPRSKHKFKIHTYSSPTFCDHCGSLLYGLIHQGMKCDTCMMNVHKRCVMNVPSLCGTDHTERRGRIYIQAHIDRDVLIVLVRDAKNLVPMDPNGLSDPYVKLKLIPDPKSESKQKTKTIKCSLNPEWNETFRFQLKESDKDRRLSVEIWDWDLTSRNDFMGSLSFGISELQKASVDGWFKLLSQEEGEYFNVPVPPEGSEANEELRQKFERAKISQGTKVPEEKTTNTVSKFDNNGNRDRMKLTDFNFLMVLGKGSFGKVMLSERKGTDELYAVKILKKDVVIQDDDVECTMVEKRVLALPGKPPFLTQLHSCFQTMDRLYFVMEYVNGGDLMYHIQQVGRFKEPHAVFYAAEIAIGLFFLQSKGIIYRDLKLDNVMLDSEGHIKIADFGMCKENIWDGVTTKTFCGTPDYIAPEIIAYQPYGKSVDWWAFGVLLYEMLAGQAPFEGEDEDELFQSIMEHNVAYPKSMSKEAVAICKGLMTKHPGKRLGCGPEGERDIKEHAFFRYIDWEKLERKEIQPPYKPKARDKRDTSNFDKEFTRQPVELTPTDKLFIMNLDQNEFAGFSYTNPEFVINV
T1 sequence (Q05655 whole entry, the tested form may be a part): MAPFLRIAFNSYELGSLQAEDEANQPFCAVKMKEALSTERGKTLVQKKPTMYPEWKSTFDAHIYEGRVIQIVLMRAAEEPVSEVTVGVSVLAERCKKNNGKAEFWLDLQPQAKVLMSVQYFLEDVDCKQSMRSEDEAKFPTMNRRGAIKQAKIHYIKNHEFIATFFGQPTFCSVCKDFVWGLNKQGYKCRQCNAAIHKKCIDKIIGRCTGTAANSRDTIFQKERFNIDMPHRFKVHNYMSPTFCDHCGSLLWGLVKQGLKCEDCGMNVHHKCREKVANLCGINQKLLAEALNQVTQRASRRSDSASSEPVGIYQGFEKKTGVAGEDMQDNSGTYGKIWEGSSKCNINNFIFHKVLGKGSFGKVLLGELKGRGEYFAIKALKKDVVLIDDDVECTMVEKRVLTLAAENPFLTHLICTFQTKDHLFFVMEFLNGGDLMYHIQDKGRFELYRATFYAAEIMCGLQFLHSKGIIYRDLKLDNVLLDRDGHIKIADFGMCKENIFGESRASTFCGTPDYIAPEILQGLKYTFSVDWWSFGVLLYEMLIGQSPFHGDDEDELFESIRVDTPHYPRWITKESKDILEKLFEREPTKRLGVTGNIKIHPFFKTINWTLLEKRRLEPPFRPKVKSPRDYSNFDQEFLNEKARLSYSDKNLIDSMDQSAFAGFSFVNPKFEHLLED
T2 sequence (Q02156 whole entry, the tested form may be a part): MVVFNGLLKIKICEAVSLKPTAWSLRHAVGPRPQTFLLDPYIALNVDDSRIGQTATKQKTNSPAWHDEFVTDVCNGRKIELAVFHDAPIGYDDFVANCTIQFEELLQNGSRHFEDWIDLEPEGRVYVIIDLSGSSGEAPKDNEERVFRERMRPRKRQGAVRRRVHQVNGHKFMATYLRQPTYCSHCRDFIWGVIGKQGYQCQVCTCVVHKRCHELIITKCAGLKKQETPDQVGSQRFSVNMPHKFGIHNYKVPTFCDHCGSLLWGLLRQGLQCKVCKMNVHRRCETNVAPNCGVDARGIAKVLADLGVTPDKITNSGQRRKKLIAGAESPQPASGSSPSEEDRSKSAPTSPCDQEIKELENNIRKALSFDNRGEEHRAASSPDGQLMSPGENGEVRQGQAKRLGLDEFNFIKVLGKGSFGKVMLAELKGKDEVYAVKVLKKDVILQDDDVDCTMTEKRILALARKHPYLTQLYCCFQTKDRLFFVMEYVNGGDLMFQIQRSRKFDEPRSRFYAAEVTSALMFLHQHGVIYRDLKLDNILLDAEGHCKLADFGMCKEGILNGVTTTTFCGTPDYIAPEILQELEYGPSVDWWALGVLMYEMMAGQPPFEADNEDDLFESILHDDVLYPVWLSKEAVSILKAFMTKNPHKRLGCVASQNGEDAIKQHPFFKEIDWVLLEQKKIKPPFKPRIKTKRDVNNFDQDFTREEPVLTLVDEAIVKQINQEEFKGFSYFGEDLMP

Take `CCCCCCCC(=O)OC1C(=CC(=O)OC)CC2CC(CO)OC(=O)CC(O)CC3CCCC(CC4COC(C=CC(C)(C)C1(O)O2)O4)O3` (centres unmarked) [Formula 18B.1]: the “translocation of PKCδ from the cytosol to cellular membranes” value in test [1] is “rapid and complete”. Further, in test [2], the “translocation of PKCε from the cytosol to cellular membranes” value is “rapid and complete”. In test [3], the “ability to translocate PKCβI relative to bryostatin 1” value is “significantly reduced ability to translocate”. In addition, in test [3] (RBL cells, 200 nM, confocal microscopy), the “translocation of PKCβI from the cytosol to cellular membranes” value is “reduced”. Moreover, the Ki in test [4] was determined as 5.4 nM.

These data come from patent US8735609B2, “Bryostatin analogues, synthetic methods and uses” (The Board of Trustees of the Leland Stanford Junior …, priority 2007, dated 2014).
